Source: patent publication US20220193185A1, “COMBINATION OF SYNTHETIC PEPTIDES WITH AFFINITY TO THE TGF-ß RECEPTOR AND WITH AFFINITY TO THE IL-10 RECEPTOR, PHARMACEUTICAL COMPOSITION AND THEIR USE AS IMMUNOMODULATORS IN THE TREATMENT OF AUTOIMMUNE, INFLAMMATORY OR ALLERGIC DISEASES” (Universidade Federal de Uberlândia, priority 2019, published 2022)
Bridges are numbered along the chain shown (N, C = ends). Where no end group is shown, it is not given here.

Assays:
[1] = aggregation behavior in solution by Dynamic Light Scattering (DLS); assay type: physicochemical; settings: for measured hydrodynamic radius: IL-10 mimetic peptides in solution
NFkB pathway [2] = assay: NFkB expression in Jurkat-Dual reporter cells, luciferase (IL-10 mimetic peptides); assay type: cell-based; settings: without activating molecules; 12, 24 and 48 hours; different concentrations
Method: (§1) In order to investigate the ability of synthetic peptides with affinity to the Interleukin-10 receptor to interfere in the NFkB, IFN and TLR4 pathways, reporter cell lines were used. To analyze whether the isolated peptides (without activation molecules) could induce any type of activation, the isolated peptides were tested in cell lines during 12, 24 and 48 hours of treatment. […] As an example, FIG. 13A, FIG. 13B, and FIG. 13C show an analysis of NFkB expression after stimulation with the synthesized IL-10 receptor affinity synthetic peptides described herein. Cells were treated for 12, 24 and 48 hours with the synthesized peptides Pep 1-IL10, Pep 2-IL10, Pep 3-IL10 and Pep 4-IL10, at different concentrations, without activating molecules. Luciferase was then measured after 12 hours of treatment (FIG. 13A), 24 hours of treatment (FIG. 13B) and 48 hours of treatment (FIG. 13C). […] TNF-α (200 ng/mL) was used as a positive control.
The assay was then carried out using TNF-α as activation molecule not only in the control, but after a pretreatment with the synthesized peptides Pep 1-IL10, Pep 2-IL10, Pep 3-IL10 and Pep 4-IL10, at different concentrations. All peptides were able to modulate NFKB activation after 12, 24 and 48 hours, with different results depending on the concentrations used. […] In the assays shown by FIGS. 14 A, B and C, analysis of NFkB expression was performed in Jurkat-Dual reporter cells. Cells were treated for 1 hour with peptides and TNF-α (200 ng/ml) added. Luciferase was measured after 12 hours of treatment (FIG. 14A), 24 hours of treatment (FIG. 14B) and 48 hours of treatment (FIG. 14C).
Another assay was then performed in which cells were pretreated with TNF-α and the synthesized peptides Pep 1-IL10, Pep 2-IL10, Pep 3-IL10 and Pep 4-IL10, at different concentrations, were added later. All peptides were able to modulate NFKB activation after 12, 24 and 48 hours, with different results depending on the concentrations used. The most significant results will be described below. […] After 48 hours of treatment, Pep 1-IL-10 at a concentration of 0.001 μM (P<0.05) was the one that obtained a result with the highest statistical significance in the decrease of NFKB signaling (FIG. 15C). In the assays shown by FIGS. 15 A, B and C, analysis of NFkB expression was performed in Jurkat-Dual reporter cells. Cells were treated for 1 hour with TNF-α (200 ng/ml) and peptides were added. Luciferase was measured after 12 hours of treatment (FIG. 15A), 24 hours of treatment (FIG. 15B) and 48 hours of treatment (FIG. 15C). TNF-α (200 ng/mL) was used as a positive control and rlL-10 (recombinant Interleukin-10) (0.4 ng/mL) as a negative control. *P<0.05; **P<0.005; ***P<0.0005.

IFN signaling pathway = IFN signaling pathway in Jurkat-Dual reporter cells, SEAP production; assay type: cell-based; settings: after 12, 24 and 48 hours; results depend on concentration
Method: as §1
The most significant results will be described below. […] When cells were pretreated with IFN, although peptides at some concentrations indicated results, they were not statistically sufficient. Therefore, we cannot confirm whether they were able to interfere with pathway activation (FIGS. 17 A, B and C) in an equal or better way than the negative control (rIL-10). In the assays shown by FIGS. 16 (A, B and C) and FIGS. 17 (A, B and C), analysis of IFN expression was performed in Jurkat-Dual reporter cells. In the assays shown by FIGS. 16 A, B and C, cells were treated for 1 hour with peptides with further addition of IFN-α (104 EU/ml). Secreted Embryonic Alkaline Phosphatase (SEAP) production was measured after 12 hours of treatment (FIG. 16A), 24 hours of treatment (FIG. 16 B) and 48 hours of treatment (FIG. 16 C). In the assays shown by FIGS. 17A, B and C, cells were treated for 1 hour with IFN-α (104 EU/ml) with further addition of the peptides. SEAP production was measured after (A) 12 hours of treatment (B), 24 hours of treatment and (C) 48 hours of treatment. IFN-α (104 EU/ml) was used as a positive control and rlL-10 (0.4 ng/ml) as a negative control. *P<0.05.

[3] = system: TGF-β1 receptor on A549 cells; assay: ELISA on cells of the A549 line using anti-TGF-β1 antibody; assay type: binding, human
Method: The peptides described in this patent application were selected using the Phage Display (PD) methodology. The selection was performed by evaluating the ability of said peptides to recognize the TGF-β1 receptor on A549 cells, using an ELISA assay. MaxiSorp 96-well microtiter plates were coated with 1×10^6 cells diluted in PBS and incubated overnight at 4° C. Cells were blocked with 3% PBS-BSA for 1 h at 37° C., washed once with PBS and incubated with […] of each TGF-β1 mimetic peptide or 5 ng/ml of recombinant TGF-β1 for 1 h at 37° C. After washing, the plate was incubated for 1 h at 37° C. with anti-TGF-β1 antibody. The plate was washed and incubated with HRP-labeled anti-human IgG antibody for 1 h at 37° C. After washing, TMB substrate solution was added to the plate; the reaction was stopped by adding the 2N H2SO4 solution and read at 492 nm in a microplate reader.
To investigate whether the synthesized peptides could bind to cell receptors, an ELISA assay was performed on cells of the A549 line using commercial anti-TGF-β1 antibody.

[4] = system: TFGβRII/SMAD-dependent pathway; assay: HEK-blue-TGFβ reporter cells, SEAP production; assay type: cell-based; settings: tested at 0.1, 1, 10 and 100 μM; for concentrations with statistically significant activation of the SMAD-dependent pathway (SEAP): 12 hours
Method: After 12 hours of stimulation (FIG. 4A), all peptides were able to bind to the receptor.
The assay was performed in such a way that approximately 2.5×10^4 cells/well (100 μL) were treated with 100 μL of all synthetic peptides at different concentrations (100 μM, 10 μM, 1 μM and 0.1 μM) while rTGF-β1 ([…]) at 100 ng/ml was used as a positive control. After incubating the cells for 12, 24 and 48 hours at 37° C. in 5% CO2, […] of supernatant was transferred to a Greiner plate to which […] of Quanti-blue solution was added. The plate was incubated for 1 hour at 37° C. in 5% CO2 and the production of SEAP (secreted alkaline phosphatase) was detected at 655 nm. All tests were performed in triplicate.

TLR4 pathway = assay: HEK-Blue hTLR4 reporter cells, SEAP production (TGF-β1 mimetic peptides); assay type: cell-based; settings: peptide pretreatment 1 hour, then LPS 100 ng/mL; 12 hours
Method: Similar to the treatment using Jurkat cells, peptides in compositions with different concentrations were also tested in HEK cells to investigate their ability to interfere with the TLR4 pathway.
To ensure that the peptides could not induce any activation when tested alone (no pathway activation molecule) only the peptides were added into the cell line and SEAP production was measured after 12 hours of treatment (Figure not shown).
The assay was performed using HEK-Blue hTLR4 reporter cells (InvivoGen) to investigate the action of peptides in the TLR4 pathway. A total of 2.3×10^4 cells/well ([…]) was pretreated with […] of composition comprising at least one of the synthetic peptides at concentrations of 100 μM, 10 μM, 1 μM, and 0.1 μM for 1 hour at 37° C. ° C. in 5% CO2 followed by LPS stimulation at 100 ng/mL for 12 hours. The same stimuli were applied to cells pretreated with LPS at 100 ng/ml for 1 hour at 37° C. in 5% CO2, followed by stimuli with peptides at 100 μM, 10 μM, 1 μM and 0.1 μM for 12 hours. Stimuli were added in Quanti-blue medium and SEAP production was measured at 655 nm. As a control, peptides at the same concentrations were tested alone to investigate whether they could activate the TLR4 pathway and LPS was used as a positive control.

NFkB pathway [5] = assay: NFkB expression in Jurkat cells, luciferase (TGF-β1 mimetic peptides); assay type: cell-based, human; settings: for concentrations with statistically significant decrease of NFKB pathway activation vs TNF-α control: peptide pretreatment 1 hour, then TNF-α, tested at 0.1-100 μM
Method: Two different cell treatments were performed using Jurkat cells to analyze NFkB expression after 12, 24 and 48 hours. In the first test, Jurkat cells were treated only with peptides (no pathway activating molecule) at different concentrations to analyze the ability of each peptide to induce NFkB expression (Figure not shown). None of the tested concentrations induced any type of pathway activation.
The assay was carried out in such a way that a total of 3×10^5 cells/well ([…]) was pretreated with […] of a composition comprising one of the synthetic peptides in concentrations of 100 μM, 10 μM, 1 μM, and 0.1 μM for 1 hour at 37° C. in 5% CO2, followed by stimulation with TNF-α (200 ng/ml) for 12, 24 and 48 hours. The same stimuli were applied to cells pretreated with TNF-α (200 ng/ml) for 1 hour at 37° C. in 5% CO2 followed by stimulation with peptides at 100 μM, 10 μM, 1 μM and 0.1 μM for 12, 24 and 48 hours. Then, […] of supernatant was transferred to a white plate and Quanti-Luc reagent was used to measure the luciferase product. As a control, the peptides were tested at the same concentrations, without any pathway activating molecule, to investigate whether they could activate the NFkB pathway. TNF-α (200 ng/mL) was used as a positive control and rIL-10 (0.4 ng/mL) as a negative control. […].

## Pep 3-IL-10: synthetic peptide with affinity to the Interleukin-10 receptor, SEQ ID NO: 11 (HCFDTQRMEFRMPPGG)
[1]
  measured hydrodynamic radius: 0.79 nm
NFkB pathway [2]
  induction of NFkB expression by peptides alone: not able to induce any response
IFN signaling pathway
  modulation of the activation of the IFN signaling pathway: able to modulate the activation of the IFN signaling pathway

## Pep 1-TGF-β1: synthetic peptide with affinity to the TGF-β receptor, SEQ ID N 01, with disulfide bridges (HACFLPASGLCGGGS; disulfide 3-11)
[1]; TGF-β1 mimetic peptides in solution
  hydrodynamic radius: 0.58 nm
[3]
  recognition of receptor-bound peptide by anti-TGF-β1 antibody compared to recombinant TGF-β1: in the same way that the antibody recognized the TGF-β1 recombinant molecule

## Pep 6-TGF-β1: synthetic peptide with affinity to the TGF-β receptor, SEQ ID N 06, free of disulfide bridges (HASKLQRSEPSGGGS)
[4]
  concentrations with statistically significant activation of the SMAD-dependent pathway (SEAP): 0.1 μM, 10 μM and 100 μM
[4]; 24 hours
  concentrations with significant maintained activation of the SMAD-dependent pathway (SEAP): 100 µM
[4]; 48 hours
  concentrations with significant maintained activation of the SMAD-dependent pathway (SEAP): 0.1 µM and 1 µM
TLR4 pathway
  concentrations with statistically significant reduction of TLR4 pathway activation: 1 µM
NFkB pathway [5]; 24 hours
  concentrations with statistically significant decrease of NFKB pathway activation vs TNF-α control: 0.1 µM
[3]
  recognition of receptor-bound peptide by anti-TGF-β1 antibody compared to recombinant TGF-β1: recognized as statistically different

## Pep 4-TGF-β1: synthetic peptide with affinity to the TGF-β receptor, SEQ ID N 04, with disulfide bridges (HACKLQRSEPCGGGS; disulfide 3-11 (inferred))
[3]
  recognition of receptor-bound peptide by anti-TGF-β1 antibody compared to recombinant TGF-β1: recognized as statistically different

## Pep 8-TGF-β1: synthetic peptide with affinity to the TGF-β receptor, SEQ ID N 08, free of disulfide bridges (HASTLPSNTHSGGGS)
[4]
  concentrations with statistically significant activation of the SMAD-dependent pathway (SEAP): 1 µM
[4]; 24 hours
  concentrations with significant maintained activation of the SMAD-dependent pathway (SEAP): 1 µM
[4]; 48 hours
  concentrations with significant maintained activation of the SMAD-dependent pathway (SEAP): 0.1 μM, 1 μM and 10 μM
NFkB pathway [5]; cells pretreated with TNF-α, then peptide, 24 hours
  concentration with statistically significant reduction of the NFKB pathway: 0.1 µM
[3]
  recognition of receptor-bound peptide by anti-TGF-β1 antibody compared to recombinant TGF-β1: recognized as statistically different

## Pep 5-TGF-β1: synthetic peptide with affinity to the TGF-β receptor, SEQ ID N 05, free of disulfide bridges (HASFLPASGLSGGGS)
[4]
  concentrations with statistically significant activation of the SMAD-dependent pathway (SEAP): 0.1 μM, 1 μM, 10 μM and 100 μM
TLR4 pathway
  concentrations with statistically significant reduction of TLR4 pathway activation: 1 µM and 10 µM
NFkB pathway [5]; 24 hours
  concentrations with statistically significant decrease of NFKB pathway activation vs TNF-α control: 0.1 μM; 1 μM and 100 μM
NFkB pathway [5]; 48 hours
  concentrations with statistically significant decrease of NFKB pathway activation vs TNF-α control: 0.1 μM; 1 μM and 10 μM
[3]
  recognition of receptor-bound peptide by anti-TGF-β1 antibody compared to recombinant TGF-β1: recognized as statistically different

## Pep 4-IL-10: synthetic peptide with affinity to the Interleukin-10 receptor, SEQ ID NO: 12 (HCMTGSRATFPSAPGG)
[1]
  measured hydrodynamic radius: 0.86 nm
NFkB pathway [2]
  induction of NFkB expression by peptides alone: not able to induce any response
IFN signaling pathway
  modulation of the activation of the IFN signaling pathway: able to modulate the activation of the IFN signaling pathway

## Pep 3-TGF-β1: synthetic peptide with affinity to the TGF-β receptor, SEQ ID N 03, free of disulfide bridges (HASESPLKRQSGGGS)
[3]
  recognition of receptor-bound peptide by anti-TGF-β1 antibody compared to recombinant TGF-β1: in the same way that the antibody recognized the TGF-β1 recombinant molecule
